Common to all, as to assay type: binding
One assay has as its target T1, PI3K delta (PI3Kd) (Homo sapiens, UniProt O00329).
T1 construct: endogenous in cells; host or cells: Jurkat cells (ATCC TIB-152, clone E6-1), lysate
The assay is described as follows: kinobeads assay, PI3K delta (dot blot detection). The procedure, abridged:
(§1)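 Jurkat cell lysate (5 mg/mL protein) incubated 2 h in the cold with test compound (9-step 1:3 series) and immobilized phenylthiazole/phenylmorpholin-chromen ligand beads. Bead-bound kinases eluted, detected by specific antibody dot blot with infrared readout; IC50 from dose-response curves.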

For assay [1], the target named is T2, DNA-dependent protein kinase (DNA-PK) (Homo sapiens, UniProt P78527).
T2 construct: endogenous in cells; host or cells: Jurkat cells (ATCC TIB-152, clone E6-1), lysate
The assay is described as follows: kinobeads assay, DNA-PK (dot blot detection). The method in brief: as §1

A further assay has as its target T3, PI3Kγ (Homo sapiens, UniProt P48736).
T3 construct: endogenous in cells; host or cells: Jurkat cells (ATCC TIB-152) lysate, the only lysate described
The assay is described as follows: kinobeads assay, PI3K gamma (dot blot detection). The settings on record: Table 4, read-out: Inhibition values (IC50) PI3Kg.

Setting [2] is: Table 2, Jurkat cell lysate, read-out: Inhibition values (IC50) PI3Kd.
Setting [3] is: Table 4, read-out: Inhibition values (IC50) PI3Kd.
[4] abbreviates: Table 2, Jurkat cell lysate, read-out: Inhibition values (IC50) DNAPK.
Setting [5] is: Table 4, read-out: Inhibition values (IC50) DNAPK.

Read-outs that look alike come from different tables or passages of the source.

T3 sequence (P48736 whole entry): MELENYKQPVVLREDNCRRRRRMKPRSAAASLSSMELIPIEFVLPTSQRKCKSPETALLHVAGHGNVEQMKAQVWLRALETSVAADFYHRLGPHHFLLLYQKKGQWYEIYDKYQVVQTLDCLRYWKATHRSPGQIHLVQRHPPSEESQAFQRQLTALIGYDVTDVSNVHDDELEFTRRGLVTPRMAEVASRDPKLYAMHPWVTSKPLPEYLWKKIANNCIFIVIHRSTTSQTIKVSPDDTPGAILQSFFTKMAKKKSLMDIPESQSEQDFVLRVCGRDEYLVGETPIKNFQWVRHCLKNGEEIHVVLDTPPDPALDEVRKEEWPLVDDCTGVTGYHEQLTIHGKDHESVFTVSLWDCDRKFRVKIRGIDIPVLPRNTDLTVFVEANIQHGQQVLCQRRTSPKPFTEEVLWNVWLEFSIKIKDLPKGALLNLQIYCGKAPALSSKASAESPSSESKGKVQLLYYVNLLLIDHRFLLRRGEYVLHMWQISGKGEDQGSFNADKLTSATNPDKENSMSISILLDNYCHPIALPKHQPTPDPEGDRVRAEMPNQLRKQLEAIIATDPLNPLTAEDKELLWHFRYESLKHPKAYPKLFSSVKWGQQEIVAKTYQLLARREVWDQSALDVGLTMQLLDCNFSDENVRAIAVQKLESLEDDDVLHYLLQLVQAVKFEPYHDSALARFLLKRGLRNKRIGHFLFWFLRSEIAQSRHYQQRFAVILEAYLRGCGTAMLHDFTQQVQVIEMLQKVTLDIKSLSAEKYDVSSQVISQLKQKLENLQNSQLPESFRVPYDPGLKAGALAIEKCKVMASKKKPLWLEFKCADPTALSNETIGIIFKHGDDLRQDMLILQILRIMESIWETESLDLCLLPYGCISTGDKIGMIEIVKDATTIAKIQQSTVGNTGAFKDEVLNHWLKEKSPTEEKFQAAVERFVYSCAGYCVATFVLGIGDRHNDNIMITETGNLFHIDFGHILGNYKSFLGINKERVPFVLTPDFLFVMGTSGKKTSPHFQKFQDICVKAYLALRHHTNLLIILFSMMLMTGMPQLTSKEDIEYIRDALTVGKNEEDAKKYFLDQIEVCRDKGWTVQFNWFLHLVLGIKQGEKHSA
T1 sequence (O00329 whole entry): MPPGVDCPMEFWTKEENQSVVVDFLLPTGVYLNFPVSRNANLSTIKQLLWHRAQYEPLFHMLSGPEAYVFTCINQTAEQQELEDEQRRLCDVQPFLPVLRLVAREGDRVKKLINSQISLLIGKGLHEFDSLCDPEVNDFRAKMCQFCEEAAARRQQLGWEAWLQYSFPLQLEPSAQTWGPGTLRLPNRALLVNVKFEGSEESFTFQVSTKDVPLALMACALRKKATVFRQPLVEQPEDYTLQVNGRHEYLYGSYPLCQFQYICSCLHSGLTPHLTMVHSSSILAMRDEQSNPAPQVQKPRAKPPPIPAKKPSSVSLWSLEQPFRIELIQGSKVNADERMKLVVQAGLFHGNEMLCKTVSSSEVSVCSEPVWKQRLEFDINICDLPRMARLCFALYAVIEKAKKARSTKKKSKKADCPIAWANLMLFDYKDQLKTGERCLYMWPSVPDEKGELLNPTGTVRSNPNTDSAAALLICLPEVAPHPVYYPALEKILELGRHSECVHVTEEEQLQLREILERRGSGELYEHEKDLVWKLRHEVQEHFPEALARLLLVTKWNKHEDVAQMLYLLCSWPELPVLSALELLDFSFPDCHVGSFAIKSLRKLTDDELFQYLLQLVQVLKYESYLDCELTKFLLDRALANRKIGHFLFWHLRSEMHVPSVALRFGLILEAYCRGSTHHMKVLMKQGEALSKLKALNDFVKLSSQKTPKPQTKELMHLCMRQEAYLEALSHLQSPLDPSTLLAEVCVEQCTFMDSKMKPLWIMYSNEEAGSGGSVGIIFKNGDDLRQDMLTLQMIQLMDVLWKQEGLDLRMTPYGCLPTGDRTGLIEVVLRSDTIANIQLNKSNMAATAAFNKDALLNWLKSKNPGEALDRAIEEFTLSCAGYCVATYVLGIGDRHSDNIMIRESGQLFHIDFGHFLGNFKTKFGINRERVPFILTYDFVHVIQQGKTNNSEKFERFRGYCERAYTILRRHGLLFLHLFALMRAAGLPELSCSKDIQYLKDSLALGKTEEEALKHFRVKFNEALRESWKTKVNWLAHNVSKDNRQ
T1 sequence (P27986 whole entry partner): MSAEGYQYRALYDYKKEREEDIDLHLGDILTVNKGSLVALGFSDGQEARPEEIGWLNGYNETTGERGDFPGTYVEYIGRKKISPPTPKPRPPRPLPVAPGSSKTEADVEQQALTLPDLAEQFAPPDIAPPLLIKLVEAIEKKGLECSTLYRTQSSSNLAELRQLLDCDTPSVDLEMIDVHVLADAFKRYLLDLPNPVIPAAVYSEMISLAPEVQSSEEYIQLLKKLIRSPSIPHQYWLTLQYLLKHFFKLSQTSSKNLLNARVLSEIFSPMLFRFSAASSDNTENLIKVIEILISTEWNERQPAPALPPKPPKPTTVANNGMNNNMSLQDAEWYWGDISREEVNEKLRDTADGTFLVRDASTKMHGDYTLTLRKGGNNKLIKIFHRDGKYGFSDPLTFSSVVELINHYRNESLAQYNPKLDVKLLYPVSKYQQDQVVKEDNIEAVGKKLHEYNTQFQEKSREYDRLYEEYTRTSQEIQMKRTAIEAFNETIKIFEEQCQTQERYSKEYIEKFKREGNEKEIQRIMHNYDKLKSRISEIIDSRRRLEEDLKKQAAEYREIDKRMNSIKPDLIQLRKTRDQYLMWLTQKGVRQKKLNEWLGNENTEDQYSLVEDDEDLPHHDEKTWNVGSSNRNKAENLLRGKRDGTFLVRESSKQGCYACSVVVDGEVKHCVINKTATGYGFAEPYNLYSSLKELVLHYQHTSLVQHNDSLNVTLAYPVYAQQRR

For the molecule `C[C@H]1COCCN1c1ccnc(-c2ccc(NC(=O)Nc3ccncc3)cc2)n1` [Example 60, (S)-1-(4-(4-(3-methylmorpholino)pyrimidin-2-yl)phenyl)-3-(pyridin-4-yl)urea], the IC50 (on PI3K delta (PI3Kd) (setting [2]); at PI3K delta (PI3Kd) (setting [3]); in assay [1] (setting [4]); in assay [1] (setting [5]); on PI3Kγ) was ≥ 10 µM in each case.
Take `C[C@H]1COCCN1c1nc(-c2ccc(NC(=O)NCC(F)F)cc2)cc(-c2cc(F)ccc2S(C)(=O)=O)n1` [Example 47, (S)-1-(2,2-difluoroethyl)-3-(4-(6-(5-fluoro-2-(methylsulfonyl)phenyl)-2-(3-methylmorpholino)pyrimidin-4-yl)phenyl)urea]: the IC50 (on PI3K delta (PI3Kd) (setting [2]); at PI3K delta (PI3Kd) (setting [3]); in assay [1] (setting [4]); in assay [1] (setting [5]); at PI3Kγ) was ≥ 10 µM in each case.
Take `O=C(Nc1ccncc1)Nc1ccc(-c2nccc(N3CC4CCC(C3)O4)n2)cc1` [Example 61, 1-(4-(4-(8-oxa-3-azabicyclo[3.2.1]octan-3-yl)pyrimidin-2-yl)phenyl)-3-(pyridin-4-yl)urea]: the IC50 is ≥ 10 µM on PI3K delta (PI3Kd) (setting [2]); ≥ 10 µM on PI3K delta (PI3Kd) (setting [3]); ≥ 10 µM in assay [1] (setting [4]); 1 to 10 µM in assay [1] (setting [5]); ≥ 10 µM at PI3Kγ.
Consider `CCNC(=O)Nc1ccc(-c2cc(-c3cc(F)ccc3S(C)(=O)=O)nc(N3CCOC[C@@H]3C)n2)cc1` [Example 2, (S)-1-ethyl-3-(4-(6-(5-fluoro-2-(methylsulfonyl)phenyl)-2-(3-methylmorpholino)pyrimidin-4-yl)phenyl)urea], for which the IC50 (on PI3K delta (PI3Kd) (setting [2]); on PI3K delta (PI3Kd) (setting [3]); in assay [1] (setting [4]); in assay [1] (setting [5]); on PI3Kγ) was ≥ 10 µM each time.
For `C[C@H]1COCCN1c1nc(-c2ccc(NC(=O)N[C@H]3CCC[C@@H]3O)cc2)cc(-c2cc(F)ccc2S(C)(=O)=O)n1` [Example 76, 1-(4-(6-(5-fluoro-2-(methylsulfonyl)phenyl)-2-((S)-3-methylmorpholino)pyrimidin-4-yl)phenyl)-3-((1S,2S)-2-hydroxycyclopentyl)urea], the IC50 (at PI3K delta (PI3Kd) (setting [3]); in assay [1] (setting [5]); at PI3Kγ) was ≥ 10 µM throughout.
On to `C[C@H]1COCCN1c1nc(-c2ccc(NC(=O)NC3CC3)cc2)cc(-c2ccccc2S(C)(=O)=O)n1` [Example 4, (S)-1-cyclopropyl-3-(4-(2-(3-methylmorpholino)-6-(2-(methylsulfonyl)phenyl)pyrimidin-4-yl)phenyl)urea], for which the IC50 (on PI3K delta (PI3Kd) (setting [2]); at PI3K delta (PI3Kd) (setting [3]); in assay [1] (setting [4]); in assay [1] (setting [5]); at PI3Kγ) was ≥ 10 µM each time.
Consider `C[C@H]1COCCN1c1cc(-c2ccccc2S(C)(=O)=O)nc(-c2ccc(NC(=O)NC3CC3)cc2)n1` [Example 6, (S)-1-cyclopropyl-3-(4-(4-(3-methylmorpholino)-6-(2-(methylsulfonyl)phenyl)pyrimidin-2-yl)phenyl)urea], for which the IC50 (on PI3K delta (PI3Kd) (setting [2]); on PI3K delta (PI3Kd) (setting [3]); in assay [1] (setting [4]); in assay [1] (setting [5]); at PI3Kγ) was ≥ 10 µM each time.
As to `C[C@H]1COCCN1c1cc(-c2ccccn2)nc(-c2ccc(NC(=O)NCCO)cc2)n1` [Example 43, (S)-1-(2-hydroxyethyl)-3-(4-(4-(3-methylmorpholino)-6-(pyridin-2-yl)pyrimidin-2-yl)phenyl)urea], the IC50 (at PI3K delta (PI3Kd) (setting [2]); on PI3K delta (PI3Kd) (setting [3]); in assay [1] (setting [4]); in assay [1] (setting [5]); on PI3Kγ) was ≥ 10 µM throughout.
`C[C@H]1COCCN1c1nc(-c2ccc(NC(=O)NCCO)cc2)cc(-c2cc(F)ccc2S(C)(=O)=O)n1` [Example 41, (S)-1-(4-(6-(5-fluoro-2-(methylsulfonyl)phenyl)-2-(3-methylmorpholino)pyrimidin-4-yl)phenyl)-3-(2-hydroxyethyl)urea]: the IC50 (on PI3K delta (PI3Kd) (setting [2]); on PI3K delta (PI3Kd) (setting [3]); in assay [1] (setting [4]); in assay [1] (setting [5]); at PI3Kγ) was ≥ 10 µM in each case.
For the molecule `C[C@H]1COCCN1c1cc(-c2ccc(F)nc2)nc(-c2ccc(NC(=O)NC3CC3)cc2)n1` [Example 21, (S)-1-cyclopropyl-3-(4-(4-(6-fluoropyridin-3-yl)-6-(3-methylmorpholino)pyrimidin-2-yl)phenyl)urea], the IC50 (at PI3K delta (PI3Kd) (setting [2]); on PI3K delta (PI3Kd) (setting [3]); in assay [1] (setting [4]); in assay [1] (setting [5]); on PI3Kγ) was ≥ 10 µM in each case.
As to `C[C@H]1COCCN1c1cc(-c2ccccn2)nc(-c2ccc(NC(=O)NC3CC3)cc2)n1` [Example 42, (S)-1-cyclopropyl-3-(4-(4-(3-methylmorpholino)-6-(pyridin-2-yl)pyrimidin-2-yl)phenyl)urea], the half-inhibitory concentration (IC50) (at PI3K delta (PI3Kd) (setting [2]); on PI3K delta (PI3Kd) (setting [3]); in assay [1] (setting [4]); in assay [1] (setting [5]); on PI3Kγ) was ≥ 10 µM throughout.
On to `CS(=O)(=O)c1ccc(F)cc1-c1cc(-c2ccc(NC(=O)NCCO)cc2)nc(N2CCOCC2)n1` [Example 62, 1-(4-(6-(5-fluoro-2-(methylsulfonyl)phenyl)-2-morpholinopyrimidin-4-yl)phenyl)-3-(2-hydroxyethyl)urea], for which the IC50 (at PI3K delta (PI3Kd) (setting [2]); on PI3K delta (PI3Kd) (setting [3]); in assay [1] (setting [4]); in assay [1] (setting [5]); at PI3Kγ) was ≥ 10 µM in each case.
In the case of `C[C@H]1COCCN1c1nc(-c2ccc(NC(=O)NCCF)cc2)cc(-c2cc(F)ccc2S(C)(=O)=O)n1` [Example 44, (S)-1-(4-(6-(5-fluoro-2-(methylsulfonyl)phenyl)-2-(3-methylmorpholino)pyrimidin-4-yl)phenyl)-3-(2-fluoroethyl)urea], the IC50 (on PI3K delta (PI3Kd) (setting [2]); on PI3K delta (PI3Kd) (setting [3]); in assay [1] (setting [4]); in assay [1] (setting [5]); on PI3Kγ) was ≥ 10 µM in each case.
For `C[C@H]1COCCN1c1nc(-c2ccc(NC(=O)NC3CC3)cc2)cc(-c2cccnc2S(C)(=O)=O)n1` [Example 46, (S)-1-cyclopropyl-3-(4-(2-(3-methylmorpholino)-6-(2-(methylsulfonyl)pyridin-3-yl)pyrimidin-4-yl)phenyl)urea], the 50% inhibitory concentration (IC50) (on PI3K delta (PI3Kd) (setting [2]); at PI3K delta (PI3Kd) (setting [3]); in assay [1] (setting [4]); in assay [1] (setting [5]); at PI3Kγ) was ≥ 10 µM throughout.
With `C[C@H]1COCCN1c1cc(-c2cncc(F)c2)nc(-c2ccc(NC(=O)NC3CC3)cc2)n1` [Example 23, (S)-1-cyclopropyl-3-(4-(4-(5-fluoropyridin-3-yl)-6-(3-methylmorpholino)pyrimidin-2-yl)phenyl)urea], the IC50 (on PI3K delta (PI3Kd) (setting [2]); at PI3K delta (PI3Kd) (setting [3]); in assay [1] (setting [4]); in assay [1] (setting [5]); on PI3Kγ) was ≥ 10 µM in each case.
`C[C@H]1COCCN1c1nc(-c2ccc(NC(=O)NCCCO)cc2)cc(-c2cc(F)ccc2S(C)(=O)=O)n1` [Example 64, (S)-1-(4-(6-(5-fluoro-2-(methylsulfonyl)phenyl)-2-(3-methylmorpholino)pyrimidin-4-yl)phenyl)-3-(3-hydroxypropyl)urea]: the IC50 (at PI3K delta (PI3Kd) (setting [2]); on PI3K delta (PI3Kd) (setting [3]); in assay [1] (setting [4]); in assay [1] (setting [5]); on PI3Kγ) was ≥ 10 µM throughout.
Consider `CCNC(=O)Nc1ccc(-c2cc(-c3ccccc3C#N)nc(N3CCOC[C@@H]3C)n2)cc1` [Example 8, (S)-1-(4-(6-(2-cyanophenyl)-2-(3-methylmorpholino)pyrimidin-4-yl)phenyl)-3-ethylurea], for which the IC50 (at PI3K delta (PI3Kd) (setting [2]); at PI3K delta (PI3Kd) (setting [3]); in assay [1] (setting [4]); in assay [1] (setting [5])) was ≥ 10 µM each time.
In the case of `C[C@H]1COCCN1c1nc(-c2ccc(NC(=O)NC3CC3)cc2)cc(-c2cc(F)ccc2S(C)(=O)=O)n1` [Example 40, (S)-1-cyclopropyl-3-(4-(6-(5-fluoro-2-(methylsulfonyl)phenyl)-2-(3-methylmorpholino)pyrimidin-4-yl)phenyl)urea], the concentration for half-maximal inhibition (IC50) (on PI3K delta (PI3Kd) (setting [2]); on PI3K delta (PI3Kd) (setting [3]); in assay [1] (setting [4]); in assay [1] (setting [5]); on PI3Kγ) was ≥ 10 µM throughout.

Source of the values: patent US9249129B2, “Morpholino substituted urea derivatives as mTOR inhibitors” (CELLZOME LIMITED, priority 2010, dated 2016).
